US20240368133A1, “Compounds for the Treatment of Pain, in Particular, Neuropathic Pain, and/or Other Diseases or Disorders that are Associated with AT2R and/or AT2R Mediated Signaling” (Confo Therapeutics N.V., priority 2021, published 2024)

Tests used:
human AT2R fused to Cb23 = human AT2R fused to Cb23 (Homo sapiens, UniProt P50052); assay: Radioligand binding assay, displacement of 125I-[Sar1, Ile8]-Angiotensin II, hAT2R Cb23; settings: displacement of 125I-[Sar1, Ile8]-Angiotensin II, human AT2R fused to Cb23, HEK-293 cell membrane preparations; read-out: Binding affinity on hAT2R_Cb23 IC50
In short: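 Membranes from HEK-293 cells expressing human AT2R fused to Cb23 were incubated with 0.05 nM 125I-[Sar1, Ile8]-Angiotensin II in 100 μL buffer (50 mM Tris, 5 mM MgCl2, 1 mM EDTA, 0.1% BSA, pH 7.4) for one hour at 25° C. Ligands were tested as eight-point dose-response curves in duplicate, with C21 and Angiotensin II as references.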

human AT1R = human AT1R (Homo sapiens (Human), UniProt P30556); assay: Counterscreen radioligand binding assay, displacement of 125I-[Sar1, Ile8]-Angiotensin II, hAT1R WT; settings: for inhibition at 1 µM / inhibition at 10 µM: 125I-[Sar1, Ile8]-Ang II, semi-quantitative score; for inhibition at 1 µM: compound at 1 μM, read-out: % Displaced radioligand at 1 μM; for inhibition at 10 µM: compound at 10 μM, read-out: % Displaced radioligand at 10 μM; for IC50: HEK-293 cell membranes, read-out: Binding affinity On hAT1R IC50
In short: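 Compounds displaced 0.05 nM 125I-[Sar1, Ile8]-Ang II from human AT1R in HEK-293 membranes (1 h, 25° C; Tris/MgCl2/EDTA/BSA buffer, pH 7.4). Readout was filtration and scintillation counting, with non-specific binding set by 10 μM [Sar1]-Ang II. Values are % displacement at 1 μM and […], or IC50 from eight-point four-parameter fits.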

Sequence of human AT2R fused to Cb23 (P50052 whole entry, looked up, the tested form may be a part): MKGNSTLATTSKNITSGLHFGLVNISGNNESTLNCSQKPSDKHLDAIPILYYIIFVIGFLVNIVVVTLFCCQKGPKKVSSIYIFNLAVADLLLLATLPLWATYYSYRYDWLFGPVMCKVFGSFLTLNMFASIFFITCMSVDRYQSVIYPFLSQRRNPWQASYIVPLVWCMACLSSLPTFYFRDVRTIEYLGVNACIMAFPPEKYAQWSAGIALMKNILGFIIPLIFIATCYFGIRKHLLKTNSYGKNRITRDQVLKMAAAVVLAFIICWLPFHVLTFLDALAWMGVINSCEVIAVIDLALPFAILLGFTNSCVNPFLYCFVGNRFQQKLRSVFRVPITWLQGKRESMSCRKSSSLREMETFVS
Sequence of human AT1R (P30556 whole entry): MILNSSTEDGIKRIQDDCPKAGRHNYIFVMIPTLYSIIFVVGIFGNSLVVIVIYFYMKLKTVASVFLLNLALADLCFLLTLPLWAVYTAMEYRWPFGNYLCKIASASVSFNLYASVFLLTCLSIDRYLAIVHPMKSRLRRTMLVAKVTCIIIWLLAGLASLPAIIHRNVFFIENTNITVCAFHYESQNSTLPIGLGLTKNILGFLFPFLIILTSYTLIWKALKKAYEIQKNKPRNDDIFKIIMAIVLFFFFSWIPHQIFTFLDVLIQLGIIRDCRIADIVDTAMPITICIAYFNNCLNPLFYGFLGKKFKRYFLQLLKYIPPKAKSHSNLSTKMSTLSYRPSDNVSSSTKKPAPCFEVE

| IC50 (human AT2R fused to Cb23) [µM] | inhibition at 1 µM (human AT1R) [%] | inhibition at 10 µM (human AT1R) [%] | IC50 (human AT1R) [µM] | SMILES |
| --- | --- | --- | --- | --- |
| 0.0158 | < 30 | < 30 | – | CNc1cc(CC(C)C)cc(N2CCN(Cc3cccnn3)CC2)c1-c1nn[nH]n1 [Compound A-171, 5-isobutyl-N-meth-yl-3-[4-(pyridazin-3-ylmethyl)piper-azin-1-yl]-2-(2H-tetrazol-5-yl)aniline] |
| 4.82 | < 30 | < 30 | – | CCS(=O)(=O)NC(=O)c1ccc(OC(C)C)cc1N1CCN(Cc2nc3ccccc3n2C)CC1 [Compound A-14, N-ethylsulfonyl-4-isopropoxy-2-[4-[(1-methylbenzimidazol-2-yl)methyl]piperazin-1-yl]benzamide] |
| 2.57 | < 30 | < 30 | – | CC(C)Cc1ccc(-c2nn[nH]n2)c(C(=O)N2CCN(Cc3cccnn3)CC2)c1 [Compound A-239, [5-isobutyl-2-(2H-tetrazol-5-yl)phenyl]-[4-(pyridazin-3-ylmethyl)piperazin-1-yl]methanone] |
| 0.0287 | < 30 | < 30 | – | CC(C)Cc1ccc(-c2nn[nH]n2)c(N2CCN(Cc3cccnn3)[C@@H](C)C2)c1F [Compound A-176, 3-[[(2S)-4-[2-fluoro-3-isobutyl-6-(2H-tetrazol-5-yl)phenyl]-2-methyl-piperazin-1-yl]methyl]pyridazine] |
| 5.43 | < 30 | < 30 | – | Cc1scnc1CN1CCN(c2cc(CC(C)C)ccc2-c2nn[nH]n2)CC1 [Compound A-111, 4-[[4-[5-isobutyl-2-(2H-tetrazol-5-yl)phenyl]piperazin-1-yl]methyl]-5-methyl-thiazole] |
| 0.022 | < 30 | < 30 | – | Cc1cc(CC(C)C)cc(N2CCN(Cc3nc4ccccc4s3)CC2)c1-c1nn[nH]n1 [Compound A-135] |
| 2.34 | < 30 | 30 to 50 | 20.3 | CC(C)Cc1ccc(-c2nn[nH]n2)c(N2CCN(c3nc4ccccc4s3)CC2)c1 [Compound A-49, 2-[4-[5-isobutyl-2-(2H-tetrazol-5-yl)-phenyl]piperazin-1-yl]-1,3-benzo-thiazole] |
| 2.19 | 30 to 50 | > 50 | 18.2 | CCc1cc(C2CC2)cc(N2CCN(Cc3nc4ccccc4s3)CC2)c1-c1nn[nH]n1 [Compound A-128, 2-[[4-[5-cycloprop-yl-3-ethyl-2-(2H-tetrazol-5-yl)phen-yl]piperazin-1-yl]-methyl]-1,3-benzo-thiazole] |
| 6.89 | < 30 | < 30 | – | CC(C)Cc1ccc(-c2nn[nH]n2)c(C2CCN(Cc3cccnn3)C2)c1 (centres unmarked) [Compound A-235, 3-[[3-[5-isobutyl-2-(2H-tetrazol-5-yl)-phenyl]pyrrolidin-1-yl]methyl]pyrid-azine] |
| 1.84 | < 30 | < 30 | – | CC(C)Cc1ccc(-c2nn[nH]n2)c(N2CCN(Cc3nn(C)c4ccccc34)CC2)c1 [Compound A-81, 3-[[4-[5-isobutyl-2-(2H-tetrazol-5-yl)-phenyl]piperazin-1-yl]methyl]-1-methyl-indazole] |
| 0.0183 | < 30 | < 30 | – | CC(C)Cc1cc(F)c(-c2nn[nH]n2)c(N2C[C@@H](C)N(Cc3cccnn3)[C@@H](C)C2)c1 [Compound A-186, 3-[[(2S,6R)-4-[3-fluoro-5-isobutyl-2-(2H-tetrazol-5-yl)-phenyl]-2,6-dimeth-yl-piperazin-1-yl]-methyl]pyridazine] |
| 10.6 | < 30 | < 30 | – | CC(C)Cc1ccc(-c2nn[nH]n2)c(N2CCN(Cc3nc(=O)c4cnn(C)c4[nH]3)CC2)c1 [Compound A-69, 6-[[4-[5-isobutyl-2-(2H-tetrazol-5-yl)-phenyl]piperazin-1-yl]methyl]-1-methyl-7H-pyr-azolo[3,4-d]pyrimi-din-4-one] |
| 4.88 | < 30 | < 30 | – | CCOc1cc(-c2nn[nH]n2)c(N2CCN(Cc3nc4ccccc4s3)CC2)cc1OC(C)C [Compound A-123, 2-[[4-[4-ethoxy-5-isopropoxy-2-(2H-tetrazol-5-yl)phen-yl]piperazin-1-yl]-methyl]-1,3-benzo-thiazole] |
| 34.1 | < 30 | < 30 | 49.9 | c1ccc(N2CCN(Cc3nc4ccccc4s3)CC2)c(-c2nn[nH]n2)c1 [Compound A-05, 2-[[4-[2-(2H-tetrazol-5-yl)phen-yl]piperazin-1-yl]-methyl]-1,3-benzo-thiazole] |
| 9.11 | < 30 | 30 to 50 | – | CCc1ccc(-c2nn[nH]n2)c(N2CCN(Cc3nc4ccccc4s3)CC2)n1 [Compound A-142, 2-[[4-[6-ethyl-3-(2H-tetrazol-5-yl)-2-pyridyl]piperazin-1-yl]methyl]-1,3-benzothiazole] |
| 13.6 | < 30 | < 30 | – | CCS(=O)(=O)NC(=O)c1ccccc1N1CCN(Cc2nc3ccccc3n2C)CC1 [Compound A-13, N-ethylsulfonyl-2-[4-[(1-methylbenzimidazol-2-yl)methyl]piperazin-1-yl]benzamide] |
| 0.389 | < 30 | < 30 | – | CC(C)Cc1cc(F)c(-c2nn[nH]n2)c(N2CCN(Cc3ncccc3Cl)CC2)c1 [Compound A-193, 1-[(3-chloro-2-pyridyl)methyl]-4-[3-fluoro-5-isobutyl-2-(2H-tetrazol-5-yl)phenyl]piperazine] |
| 3.46 | < 30 | < 30 | – | CC(C)Nc1ccc(-c2nn[nH]n2)c(N2CCN(Cc3nc4ccccc4s3)CC2)c1 [Compound A-60, 3-[4-(1,3-benzothiazol-2-ylmethyl)piperazin-1-yl]-N-isopropyl-4-(2H-tetrazol-5-yl)aniline] |
| 0.0326 | < 30 | < 30 | – | Cc1cc(CC(C)C)cc(N2CCN(Cc3cccnn3)CC2)c1-c1nn[nH]n1 [Compound A-167, 3-[[4-[5-isobutyl-3-methyl-2-(2H-tetrazol-5-yl)phen-yl]piperazin-1-yl]-methyl]pyridazine] |
| 0.102 | < 30 | 30 to 50 | 26.7 | CCc1nc2ccc(N(Cc3ccccc3)C(=O)c3cccs3)cc2c(=O)n1CC1CCN(c2ccccc2-c2nn[nH]n2)CC1 [Compound A-246, N-benzyl-N-[2-ethyl-4-oxo-3-[[1-[2-(2H-tetrazol-5-yl)phenyl]-4-piper-idyl]methyl]quin-azolin-6-yl]thio-phene-2-carbox-amide] |
| 0.322 | < 30 | < 30 | – | CC(C)Cc1cc(F)c(-c2nn[nH]n2)c(N2CCN(Cc3cccnn3)[C@H](C)C2)c1 [Compound A-175, 3-[[(2R)-4-[3-fluoro-5-isobutyl-2-(2H-tetrazol-5-yl)phenyl]-2-meth-yl-piperazin-1-yl]-methyl]pyridazine] |
| 5.92 | < 30 | < 30 | – | Cc1csc2nc(CN3CCN(c4cc(CC(C)C)ccc4-c4nn[nH]n4)CC3)cc(=O)n12 [Compound A-75, 7-[[4-[5-isobutyl-2-(2H-tetrazol-5-yl)phenyl]piperazin-1-yl]methyl]-3-methyl-thiazolo[3,2-a]pyrimidin-5-one] |
| 1 | < 30 | < 30 | 41.5 | CC(C)Oc1cc(F)c(-c2nn[nH]n2)c(N2CCN(Cc3nc4ccccc4s3)CC2)c1 [Compound A-118, 2-[[4-[3-fluoro-5-isopropoxy-2-(2H-tetrazol-5-yl)phen-yl]piperazin-1-yl]-methyl]-1,3-benzo-thiazole] |
| 0.681 | < 30 | < 30 | – | CC(C)Cc1ccc(-c2nn[nH]n2)c(N2CCN(Cc3cccnn3)CC2)c1F [Compound A-165, 3-[[4-[2-fluoro-3-isobutyl-6-(2H-tetrazol-5-yl)phen-yl]piperazin-1-yl]-methyl]pyridazine] |
| 4.96 | < 30 | < 30 | – | CNc1cc(-c2nn[nH]n2)c(N2CCN(Cc3nc4ccccc4s3)CC2)cc1CC(C)C [Compound A-139, 4-[4-(1,3-benzothi-azol-2-ylmethyl)-piperazin-1-yl]-2-isobutyl-N-methyl-5-(2H-tetrazol-5-yl)aniline] |
| 9.42 | < 30 | < 30 | – | CCc1cc(-c2nn[nH]n2)c(N2CCN(Cc3nc4ccccc4s3)CC2)cc1OC(C)C [Compound A-119, 2-[[4-[4-ethyl-5-isopropoxy-2-(2H-tetrazol-5-yl)phen-yl]piperazin-1-yl]-methyl]-1,3-benzo-thiazole] |

| SMILES | IC50 (human AT2R fused to Cb23) [µM] | inhibition at 1 µM (human AT1R) [%] | inhibition at 10 µM (human AT1R) [%] | IC50 (human AT1R) [µM] |
| --- | --- | --- | --- | --- |
| CCS(=O)(=O)NC(=O)c1ccc(OCC(C)C)cc1N1CCN(Cc2nc3ccccc3s2)CC1 [Compound A-43, 2-[4-(1,3-benzothiazol-2-ylmethyl)piperazin-1-yl]-N-ethylsulfonyl-4-isobutoxy-benzamide] | 4.38 | < 30 | 30 to 50 | – |
